Source: BindingDB's records for doi:10.1021/jm201510p (Abo Akademi University, 2012)

Molecular target: T1, Poly [ADP-ribose] polymerase tankyrase-2 (Homo sapiens, UniProt Q9H2K2)
T1 sequence (Q9H2K2 whole entry): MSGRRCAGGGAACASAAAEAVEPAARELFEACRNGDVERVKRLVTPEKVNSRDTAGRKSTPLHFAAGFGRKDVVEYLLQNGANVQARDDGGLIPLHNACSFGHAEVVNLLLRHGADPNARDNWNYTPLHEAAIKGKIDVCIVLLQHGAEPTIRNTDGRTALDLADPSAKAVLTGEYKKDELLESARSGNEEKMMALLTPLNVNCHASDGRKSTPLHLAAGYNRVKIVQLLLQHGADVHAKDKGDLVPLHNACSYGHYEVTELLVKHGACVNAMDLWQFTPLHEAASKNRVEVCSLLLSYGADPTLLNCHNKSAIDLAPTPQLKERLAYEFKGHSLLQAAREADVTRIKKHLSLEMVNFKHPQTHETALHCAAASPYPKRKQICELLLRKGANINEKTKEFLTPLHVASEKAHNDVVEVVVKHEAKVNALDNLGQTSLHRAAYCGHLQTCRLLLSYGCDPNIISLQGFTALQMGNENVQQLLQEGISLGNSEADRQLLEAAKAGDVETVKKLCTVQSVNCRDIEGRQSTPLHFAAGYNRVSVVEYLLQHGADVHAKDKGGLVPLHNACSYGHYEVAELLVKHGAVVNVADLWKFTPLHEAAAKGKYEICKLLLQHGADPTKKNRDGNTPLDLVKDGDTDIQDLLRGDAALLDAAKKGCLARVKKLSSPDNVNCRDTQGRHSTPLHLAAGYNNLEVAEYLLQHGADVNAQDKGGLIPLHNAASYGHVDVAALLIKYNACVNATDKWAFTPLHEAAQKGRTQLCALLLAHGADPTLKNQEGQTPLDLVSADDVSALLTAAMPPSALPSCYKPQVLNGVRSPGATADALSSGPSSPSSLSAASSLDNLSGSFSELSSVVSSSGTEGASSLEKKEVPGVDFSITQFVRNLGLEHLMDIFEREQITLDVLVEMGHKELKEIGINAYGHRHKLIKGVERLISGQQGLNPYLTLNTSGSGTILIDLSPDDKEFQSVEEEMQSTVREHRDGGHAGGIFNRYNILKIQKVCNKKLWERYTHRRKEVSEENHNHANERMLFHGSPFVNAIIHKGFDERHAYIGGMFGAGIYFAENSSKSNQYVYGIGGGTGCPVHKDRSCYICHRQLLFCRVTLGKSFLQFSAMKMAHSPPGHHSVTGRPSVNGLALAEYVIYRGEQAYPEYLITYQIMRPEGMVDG
Assay: Activity of N-terminus hexaHis-tagged human TNSK2 expressed in Escherichia coli BL21 (DE3) cells using biotinylated NAD+ as substrate after 90 mins by Western blot analysis

| Compound | EC50 [µM] |
| --- | --- |
| O=C(Nc1ccccc1)c1ccc(-n2c(O)c3c(c2O)[C@H]2C=C[C@@H]3C2)cc1 | > 25 |
| O=C(NC1CCCCC1)c1ccc(-n2c(O)c3c(c2O)[C@H]2C=C[C@@H]3C2)cc1 [N-Cyclohexyl-4-((1R,2S,6R,7S)-3,5-dioxo-4-aza-tricyclo[5.2.1.0*2,6*]dec-8-en-4-yl)-benzamide] | > 25 |
